In experiment [1] the target is T1, Angiotensin II receptor (Rattus norvegicus, UniProt P29089+P25095+P35351).
T1 sequence (P29089 whole entry): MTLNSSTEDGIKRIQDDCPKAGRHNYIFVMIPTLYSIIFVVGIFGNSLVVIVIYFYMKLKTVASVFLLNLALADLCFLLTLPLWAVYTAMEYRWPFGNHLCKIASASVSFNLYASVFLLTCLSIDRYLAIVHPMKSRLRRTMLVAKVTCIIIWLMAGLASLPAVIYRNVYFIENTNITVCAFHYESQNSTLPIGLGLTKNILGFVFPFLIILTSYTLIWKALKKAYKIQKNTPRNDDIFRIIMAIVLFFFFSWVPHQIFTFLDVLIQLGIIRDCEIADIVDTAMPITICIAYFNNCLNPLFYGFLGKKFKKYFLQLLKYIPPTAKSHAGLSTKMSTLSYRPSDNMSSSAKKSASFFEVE
T1 sequence (P25095 whole entry): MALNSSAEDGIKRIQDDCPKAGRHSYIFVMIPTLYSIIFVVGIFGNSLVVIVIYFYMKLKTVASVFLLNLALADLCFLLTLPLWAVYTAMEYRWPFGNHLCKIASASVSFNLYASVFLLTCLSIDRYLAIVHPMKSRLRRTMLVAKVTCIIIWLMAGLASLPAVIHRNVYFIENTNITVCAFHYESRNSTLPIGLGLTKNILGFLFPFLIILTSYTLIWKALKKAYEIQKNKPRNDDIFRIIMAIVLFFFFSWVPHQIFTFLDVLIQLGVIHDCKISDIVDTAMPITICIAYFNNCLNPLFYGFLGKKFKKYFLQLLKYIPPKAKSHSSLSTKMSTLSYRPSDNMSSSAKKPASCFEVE
T1 sequence (P35351 whole entry): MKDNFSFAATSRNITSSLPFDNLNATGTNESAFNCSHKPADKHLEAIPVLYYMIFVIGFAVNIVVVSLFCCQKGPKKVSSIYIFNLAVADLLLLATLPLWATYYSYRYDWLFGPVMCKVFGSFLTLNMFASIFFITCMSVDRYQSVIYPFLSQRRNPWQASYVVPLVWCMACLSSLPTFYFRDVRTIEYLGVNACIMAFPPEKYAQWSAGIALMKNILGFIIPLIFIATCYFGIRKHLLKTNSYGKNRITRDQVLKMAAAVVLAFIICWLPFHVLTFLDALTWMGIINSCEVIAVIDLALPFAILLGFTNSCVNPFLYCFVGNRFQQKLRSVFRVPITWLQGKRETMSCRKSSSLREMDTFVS
Briefly: Inhibition of [125I]- AII binding to rat uterine membrane angiotensin II receptor.

Experiment [2] is filed under the species Oryctolagus cuniculus. Description: Antagonism of AII-contracted rabbit aortic rings. Particulars: for Kb: Oryctolagus cuniculus, Aorta, read-out: pA2 (converted). Type of experiment: functional, organism-based, Aorta.

The text below walks through data of ChEMBL document CHEMBL1127227, “1H-1,2,4-triazole angiostensin II receptor antagonists: qC-linkedq analogs of SC-50560” (Bioorg Med Chem Lett, 1994).

“And” between values parts separate entries of the source, which are not always exact repeats. Equal entries are not always repeated.

For `CCCCc1nc(C(F)(F)c2ccc(-c3ccccc3-c3nn[nH]n3)cc2)n(CCCC)n1`, the half-maximal inhibitory concentration (IC50) (usually the concentration at which inhibition is half-maximal) in experiment [1] is 710 nM.
For the compound `CCCCc1nc(Cc2ccc(-c3ccccc3-c3nnn(C(c4ccccc4)(c4ccccc4)c4ccccc4)n3)cc2)n(CCCC)n1`, the IC50 in experiment [1] was 140 nM.
In experiment [1], `CCCCc1nc(Cc2ccc(-c3ccccc3C(=O)O)cc2)n(CCCC)n1` had a 50% inhibitory concentration (IC50) of 240 nM. For the same compound, the Kb in experiment [2] was 79.4 nM.
In the case of `CCCCc1nc(Cc2ccc(-c3ccccc3-c3nn[nH]n3)cc2)nn1CCCC`, the IC50 in experiment [1] is 12000 nM and 6700 nM. In addition, in experiment [2], the pA2 – broadly, the negative logarithm of the molar antagonist concentration that doubles the agonist concentration needed for the same response – stood at 5.3 and the Kb was 10000 nM.
For the compound `CCCCc1nc(Cc2ccc(-c3ccccc3-c3nn[nH]n3)cc2)n(CCCC)n1`, the IC50 in experiment [1] came out at 16 nM. For the same compound, in experiment [2], the Kb is 3.16 nM.
For the compound `CCCCn1nc(CCc2ccccc2)nc1Cc1ccc(-c2ccccc2-c2nn[nH]n2)cc1`, the IC50 in experiment [1] worked out at 9.5 nM. In experiment [2], the Kb was 12.6 nM.
In experiment [1], `CCCCc1nc(C(C)c2ccc(-c3ccccc3-c3nn[nH]n3)cc2)n(CCCC)n1` (stereo not drawn) gave an IC50 of 29000 nM.
Take `CCCCn1nc(C(F)(F)CCC)nc1Cc1ccc(-c2ccccc2-c2nn[nH]n2)cc1`: the concentration for half-maximal inhibition (IC50) in experiment [1] is on record as 40 nM. Further, in experiment [2], the Kb is 10 nM.
In experiment [1], `CCCCc1nc(C(=O)c2ccc(-c3ccccc3-c3nn[nH]n3)cc2)n(CCCC)n1` showed an IC50 of 32000 nM.
`CCCCc1nc(C(O)c2ccc(-c3ccccc3-c3nn[nH]n3)cc2)n(CCCC)n1` (stereo not drawn) returned an IC50 in experiment [1] of 1800 nM. In addition, the Kb in experiment [2] is 251 nM.
Regarding `CCCCc1nc(CCCC)n(Cc2ccc(-c3ccccc3-c3nn[nH]n3)cc2)n1`, the Kb in experiment [2] is 2 nM.
